Where only a bound is given, the exact number is not on record here.

The target of the experiment is T1, human FAAH (Homo sapiens, UniProt O00519).
T1 construct: host or cells: COS-7 cells, transient transfection; 13,000 g membrane fraction solubilised in 1% Triton X-100
T1 sequence (O00519 1-579): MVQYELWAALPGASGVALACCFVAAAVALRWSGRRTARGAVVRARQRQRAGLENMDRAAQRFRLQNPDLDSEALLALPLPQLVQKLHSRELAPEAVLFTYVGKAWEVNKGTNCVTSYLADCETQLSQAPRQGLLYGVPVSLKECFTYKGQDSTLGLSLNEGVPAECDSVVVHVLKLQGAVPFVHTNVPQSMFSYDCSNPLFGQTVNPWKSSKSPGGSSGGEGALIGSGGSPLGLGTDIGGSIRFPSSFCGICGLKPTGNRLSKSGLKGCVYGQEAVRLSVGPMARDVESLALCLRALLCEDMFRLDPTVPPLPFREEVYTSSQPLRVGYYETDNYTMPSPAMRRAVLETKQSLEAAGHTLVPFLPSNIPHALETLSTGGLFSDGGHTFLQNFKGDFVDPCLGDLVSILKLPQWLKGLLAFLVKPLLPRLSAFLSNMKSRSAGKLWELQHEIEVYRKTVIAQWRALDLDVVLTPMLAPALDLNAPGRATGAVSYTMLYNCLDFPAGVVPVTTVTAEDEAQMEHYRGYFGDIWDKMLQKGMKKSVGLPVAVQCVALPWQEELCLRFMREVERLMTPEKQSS
The experiment can be described thus: Inhibition of human FAAH (AMC arachidonoyl amide fluorescence assay). In kind it is biochemical. As to conditions: inhibitor preincubated 30 minutes at room temperature; 20 μM AMC arachidonoyl amide; 4 hours; read-out: Activity (Ki, inhibitors of human FAAH). As for the experimental part: Human FAAH Preparation: COS-7 cells were split the day before, 1:5 into 150 mm x […] cell culture dishes (Corning Inc., Cat. No. 430599). Transient transfection took place at 30-40% confluency according to FuGENE 6 Transfection Reagent (Roche, Cat. No. 11814 443 001).
Transfection Procedure: The FuGENE transfection 6 reagent (45 uL) was added to 1410 μL of media (DMEM, serum free without pen/strep) in a 15 mL conical tube and incubated at room temp for 5 minutes, followed by the addition of FAAH plasmid DNA (15 μg) (OriGene Cat. No. TC119221, Genbank Accession No. NM_001441.1, 0.67 ug/uL) and a further incubation of 15 minutes at room temperature. The resulting solution was added into one dish of 30-40% confluent COS-7 cells in a drop-wise manner. The COS-7 cell dish was subsequently incubated for 48 hours. The cells are then harvested.
Harvest procedure: Media was aspirated from the dishes and the cells rinsed with 10 mL PBS. The PBS was removed and 3 mL of PBS added to the dish. The dish was scraped to resuspend the cells, and the subsequent cell suspension collected into a 15 mL conical tube. The cells were pelleted by centrifugation at 1200 rpm for 5 minutes in a bench top centrifuge. PBS was removed and the cell pellet snap frozen in liquid nitrogen and stored at −80° C.
COS-7 cells —FAAH purification: • (1) Fractionation: Frozen cell pellets from transient transfections were thawed on ice and resuspended in 12.5 mM Hepes pH 8.0, 100 mM NaCl, 1 mM EDTA (10 mL/0.2 g cell pellet). The pellets were dounce homogenized and then sonicated to produce cell extract. The cell extract was subsequently centrifuged at 1000 g to remove cellular debris. The pellet was discarded and the supernatant centrifuged at 13,000 g for 20 minutes. The pellet contained membrane bound FAAH. The supernatant was discarded and the pellet resolubilized. • (2) Re-solubilization: The fraction of interest, (13,000 g, membrane fraction) was re-suspended in 2.3 mL re-suspension buffer (20 mM Hepes pH 7.8, 10% v/v Glycerol, 1 mM EDTA, 1% Triton X-100) and the sample incubated on ice for 1 hour and then centrifuged to remove any particulate matter. The supernatant containing solubilized human FAAH was aliquoted and snap frozen in liquid nitrogen and stored at −80° C. until use. • (3) Characterization: Protein Concentration determined by Bradford assay. • SDS gel and Western blot to confirm presence of FAAH • FAAH activity assay • Km determination-96-well assay • Linear dependence—96-well assay • Standard compound Ki determination—384-well assay
Human FAAH assay; Experimental Protocol: A 0.1 mg/mL Human FAAH solution was made up in FAAH reaction buffer, and 24 ul pipeted into a 384 well plate. To this was added 1 μL of a 3 fold serially diluted inhibitor from a DMSO stock solution. The FAAH solution and inhibitor were incubated for 30 minutes at room temperature. The FAAH reaction was initiated by the addition of 25 μL of 40 μM AMC Arachidonoyl Amide in FAAH reaction buffer, yielding a final reaction human FAAH preparation concentration of 0.05 mg/ml and AMC-Arachidonoyl substrate concentration of 20 μM, reaction volume 50 μL. The reaction was allowed to proceed for 4 hours at room temperature. The reaction was stopped by the addition of 25 μL 12 μM a-ketoheterocycle (Cayman Chemicals, catalogue #10435). The microtiter plate was read in the envision plate reader.
The raw fluorescence was plotted on the y axis and the inhibitor concentration on the x axis to give a dose response inhibition curve. The data was fitted to a single site competitive inhibition equation, fixing the Km for the human enzyme to 12 μM and 9 μM respectively.
One may read the Ki as the dissociation constant of the complex between target and ligand, obtained from inhibition or displacement. In the case of `Fc1ccc([C@H]2CC(Br)=NO2)cc1` (racemic) [I-2], the Ki was 100 to 1000 nM.
Then `Clc1ccc([C@H]2CC(Br)=NO2)cc1` (racemic) [I-3], with not above 100 nM; and `COc1ccc([C@H]2CC(Br)=NO2)cc1` (racemic) [I-6], with not above 100 nM; and `BrC1=NO[C@@H](c2ccc(-c3ccccc3)cc2)C1` (racemic) [I-9], with not above 100 nM.
Regarding `FC(F)(F)Oc1ccc(C2CC(Br)=NO2)cc1` (racemic) [I-14, 3-bromo-5-(4-(trifluoromethoxy)phenyl)-4,5-dihydroisoxazole], the Ki is not above 100 nM.
In the case of `CC(C)Oc1ccc([C@H]2CC(Br)=NO2)cc1` (racemic) [I-15], the Ki was not above 100 nM.
For `BrC1=NO[C@@H](c2ccc3c(c2)OCO3)C1` (racemic) [I-16], the Ki is not above 100 nM.
As for `CCCCOc1ccc([C@H]2CC(Br)=NO2)cc1` (racemic) [I-20], the Ki was not above 100 nM.
To `O=C(NCc1ccccc1)c1ccc([C@H]2CC(Br)=NO2)cc1` (racemic) [I-22] belongs 100 to 1000 nM; to `COc1ccc([C@H]2CC(Oc3cccnc3)=NO2)cc1` (racemic) [I-38], 100 to 1000 nM.
On to `NC(=O)c1cncc(OC2=NOC(c3ccc(OC(F)(F)F)cc3)C2)c1` (racemic) [I-53], for which the Ki lay within 100 to 1000 nM.
To `CNC(=O)c1cncc(OC2=NOC(c3ccc(OC(F)(F)F)cc3)C2)c1` (racemic) [I-54] belongs not above 100 nM; to `O=C(O)c1cncc(OC2=NOC(c3ccc(OC(F)(F)F)cc3)C2)c1` (racemic) [I-55], not below 1000 nM.
To `FC(F)(F)c1ccc(OC2=NOC(c3ccc(Oc4ccccc4)cc3)C2)cn1` (racemic) [I-56] belongs not above 100 nM; to `c1ccc(Oc2ccc(C3CC(Oc4cnc5cc[nH]c5c4)=NO3)cc2)cc1` (racemic) [I-57], not above 100 nM.
Consider `N#Cc1cccc(OC2=NOC(c3ccc(Oc4ccccc4)cc3)C2)c1` (racemic) [I-58], for which the Ki fell in the range of 100 to 1000 nM.
As to `Fc1ccccc1OC1=NOC(c2ccc(Oc3ccccc3)cc2)C1` (racemic) [I-59], the Ki was 100 to 1000 nM.
As for `Fc1ccc(OC2=NOC(c3ccc(Oc4ccccc4)cc3)C2)cc1C(F)(F)F` (racemic) [I-60], the Ki is not below 1000 nM.
With `COC(=O)c1cccc(OC2=NOC(c3ccc(Oc4ccccc4)cc3)C2)c1` (racemic) [I-61], the Ki is not above 100 nM.
Consider `COC(=O)c1ccc(OC2=NOC(c3ccc(Oc4ccccc4)cc3)C2)cc1` (racemic) [I-62], for which the Ki was not above 100 nM.
For `N[S@SP3](=O)(=O)c1cccc(OC2=NOC(c3ccc(Oc4ccccc4)cc3)C2)c1` (racemic) [I-63], the Ki is not below 1000 nM.
Then `N[S@SP3](=O)(=O)c1cccc(OC2=NOC(c3ccc(Oc4ccccc4)cc3)C2)c1` (racemic) [I-64], with not below 1000 nM.
To `COc1cncc(OC2=NOC(c3ccc(Oc4ccccc4)cc3)C2)c1` (racemic) [I-65] belongs not above 100 nM; to `COc1ncc(OC2=NOC(c3ccc(Oc4ccccc4)cc3)C2)cn1` (racemic) [I-66], not above 100 nM; to `COC(=O)c1ccc(OC2=NOC(c3ccc(Oc4ccccc4)cc3)C2)cn1` (racemic) [I-67], not above 100 nM.
Then `c1ccc(Oc2ccc(C3CC(Oc4cnc5[nH]ccc5c4)=NO3)cc2)cc1` (racemic) [I-68], with not above 100 nM; and `c1ccc(Oc2ccc(C3CC(Oc4cnc5ccoc5c4)=NO3)cc2)cc1` (racemic) [I-69], with not above 100 nM.
Turning to `FC(F)(F)Oc1ccc(C2CC(Oc3cccnc3)=NO2)cc1` (racemic) [I-70], the Ki was not above 100 nM.
Take `FC(F)(F)Oc1ccc(C2CC(Oc3cncc(Br)c3)=NO2)cc1` (racemic) [I-71]: the Ki was not above 100 nM.
Consider `FC(F)(F)Oc1ccc(C2CC(Oc3cncc(-c4ccccc4)c3)=NO2)cc1` (racemic) [I-72], for which the Ki is 100 to 1000 nM.
To `NC(=O)c1cccc(-c2cncc(OC3=NOC(c4ccc(OC(F)(F)F)cc4)C3)c2)c1` (racemic) [I-73] belongs not above 100 nM; to `COC(=O)c1ccc(C2CC(Br)=NO2)cc1` (racemic) [I-74], not above 100 nM.
To `CC1(c2ccc(OC(F)(F)F)cc2)CC(Br)=NO1` (racemic) [I-75] belongs not above 100 nM; to `CC1(c2ccc(Oc3ccccc3)cc2)CC(Br)=NO1` (racemic) [I-76], not above 100 nM.
To `COc1ccc([C@@H]2ON=C(Br)[C@H]2C)cc1` (racemic) [I-77] belongs not below 1000 nM; to `COC(=O)c1cccc(-c2ccc(OC3=NOC(c4ccc(OC(F)(F)F)cc4)C3)cn2)c1` (racemic) [I-83], 100 to 1000 nM; to `CCOC(=O)c1cccc(-c2ccc(OC3=NOC(c4ccc(OC(F)(F)F)cc4)C3)cn2)c1` (racemic) [I-84], 100 to 1000 nM.
As for `O=C(O)c1cccc(-c2ccc(OC3=NOC(c4ccc(OC(F)(F)F)cc4)C3)cn2)c1` (racemic) [I-85], the Ki is 100 to 1000 nM.
To `FC(F)(F)Oc1ccc(C2CC(Oc3ccc(-c4ccccc4)nc3)=NO2)cc1` (racemic) [I-86] belongs 100 to 1000 nM.
Turning to `c1cncc(OC2=NOC(c3ccc(Oc4cccnc4)cc3)C2)c1` (racemic) [I-87], the Ki was not above 100 nM.
Take `CC1(c2ccc(OC(F)(F)F)cc2)CC(Oc2cccnc2)=NO1` (racemic) [I-88]: the Ki lay in the range of 100 to 1000 nM.
To `CC1(c2ccc(Oc3ccccc3)cc2)CC(Oc2cccnc2)=NO1` (racemic) [I-89] belongs not above 100 nM; to `NS(=O)(=O)c1ccc(OC2=NOC(c3ccc(Oc4ccccc4)cc3)C2)cc1` (racemic) [I-90], not above 100 nM.
`C[C@@H]1C(Oc2cccnc2)=NO[C@H]1c1ccc(Oc2ccccc2)cc1` (racemic) [I-91]: the Ki is not below 1000 nM.
Regarding `CC(C)(C)OC(=O)Nc1ccc(OC2=NOC(c3ccc(Oc4ccccc4)cc3)C2)cn1` (racemic) [I-92], the Ki is not below 1000 nM.
Consider `CC(=O)Nc1ccc(OC2=NOC(c3ccc(Oc4ccccc4)cc3)C2)cn1` (racemic) [I-94], for which the Ki was not above 100 nM.
For the compound `CCC1(c2ccc(Oc3ccccc3)cc2)CC(Br)=NO1` (racemic) [I-95], the Ki is not above 100 nM.
To `COC(=O)c1ccc(OC2=NOC(c3ccc(OC(F)(F)F)cc3)C2)cn1` (racemic) [I-96] belongs not above 100 nM; to `O=C(O)c1ccc(OC2=NOC(c3ccc(OC(F)(F)F)cc3)C2)cn1` (racemic) [I-97], not above 100 nM; to `COC(=O)CCc1ccc(OC2=NOC(c3ccc(Oc4ccccc4)cc3)C2)cn1` (racemic) [I-98], not above 100 nM.
Then `O=C(O)CCc1ccc(OC2=NOC(c3ccc(Oc4ccccc4)cc3)C2)cn1` (racemic) [I-99], with not above 100 nM.
Take `NC(=O)CCc1ccc(OC2=NOC(c3ccc(Oc4ccccc4)cc3)C2)cn1` (racemic) [I-100]: the Ki was not above 100 nM.

These data come from US9149465B2, “Isoxazolines as inhibitors of fatty acid amide hydrolase” (Infinity Pharmaceuticals, Inc., priority 2009, dated 2015).
